Where a name gives a salt, the structure may show the parent alone.
Biological target: T1, human cloned 5-HT6 receptors (Homo sapiens, UniProt P50406)
T1 construct: expressed in transfected cells; host or cells: HeLa cells
Assay: 5-HT6 binding affinity, [3H]-LSD displacement on membranes of Hela cells expressing human cloned 5-HT6 receptors
Conditions: [3H]-LSD 3.0 nM, Hela cell membranes, 120 minutes at room temperature
Procedure: The affinity of test compounds for the serotonin 5-HT6 receptor was evaluated in the following manner. Cultured Hela cells expressing human cloned 5-HT6 receptors were harvested and centrifuged at low speed (1,000×g) for 10.0 minutes to remove the culture media. The harvested cells were suspended in half volume of fresh physiological phosphate buffered saline solution and recentrifuged at the same speed. This operation was repeated. The collected cells were then homogenized in ten volumes of 50 mM Tris.HCl (pH 7.4) and 0.5 mM EDTA. The homogenate was centrifuged at 40,000×g for 30.0 min and the precipitate was collected. The obtained pellet was resuspended in 10 volumes of Tris.HCl buffer and recentrifuged at the same speed. The final pellet was suspended in a small volume of Tris.HCl buffer and the tissue protein content was determined in aliquots of 10-25 μl volumes. Bovine Serum Albumin was used as the standard in the protein determination according to the method described in Lowry et al., J. Biol. Chem., 193: 265 (1951).
The volume of the suspended cell membranes was adjusted to give a tissue protein concentration of 1.0 mg/ml of suspension. The prepared membrane suspension (10 times concentrated) was aliquoted in 1.0 ml volumes and stored at −70° C. until used in subsequent binding experiments.
Binding experiments were performed in a 96 well microtiter plate format, in a total volume of 200 μl. […] The test compounds were added in 20.0 μl volume.
The reaction was allowed to proceed in the dark for 120 minutes at room temperature, at which time, the bound ligand-receptor complex was filtered off on a 96 well unifilter with a Packard Filtermate® 196 Harvester. The bound complex caught on the filter disk was allowed to air dry and the radioactivity is measured in a Packard TopCount® equipped with six photomultiplier detectors, after the addition of 40.0 μl Microscint®-20 scintillant to each shallow well. The unifilter plate was heat-sealed and counted in a PackardTopCount® with a tritium efficiency of 31.0%.
Binding in the presence of varying concentrations of test compound was expressed as a percentage of specific binding in the absence of test compound. The results were plotted as log % bound versus log concentration of test compound. […] A linear regression line of data points was plotted, from which the IC50 value is determined and the Ki value is determined based upon the following equation: […]
where L was the concentration of the radioactive ligand used and KD is the dissociation constant of the ligand for the receptor, both expressed in nM.

T1 sequence (P50406 whole entry): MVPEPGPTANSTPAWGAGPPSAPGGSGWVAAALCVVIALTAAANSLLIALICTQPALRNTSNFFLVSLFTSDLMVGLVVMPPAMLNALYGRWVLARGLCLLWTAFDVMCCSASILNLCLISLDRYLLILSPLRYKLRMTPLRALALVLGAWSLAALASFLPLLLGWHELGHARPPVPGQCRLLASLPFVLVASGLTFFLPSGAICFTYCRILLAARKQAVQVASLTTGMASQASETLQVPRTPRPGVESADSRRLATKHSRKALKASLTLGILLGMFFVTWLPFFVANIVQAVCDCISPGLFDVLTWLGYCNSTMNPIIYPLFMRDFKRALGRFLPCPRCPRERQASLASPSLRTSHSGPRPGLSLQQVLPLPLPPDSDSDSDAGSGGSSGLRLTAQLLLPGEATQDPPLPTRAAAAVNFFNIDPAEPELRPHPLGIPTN

Compound	Ki
O=C(Nc1ccc2cnn(S(=O)(=O)c3cccc4ccccc34)c2c1)C1CCCNC1 (stereo not shown) [Example 9]	3.4 nM
NCCC(=O)Nc1ccc2c(cnn2S(=O)(=O)c2cccc3ccccc23)c1 [Example 6]	49.5 nM
O=S(=O)(c1cccc2ccccc12)n1ncc2ccc(NCC3CCNCC3)cc21 [Example 14, [1-(Naphthalene-1-sulfonyl)-1H-indazol-6-yl]-piperidin-4-ylmethyl-amine dihydrochloride]	18.4 nM
CNCCC(=O)Nc1ccc2cnn(S(=O)(=O)c3cccc4ccccc34)c2c1 [Example 7]	1.2 nM
NCCC(=O)Nc1ccc2cnn(S(=O)(=O)c3cccc4ccccc34)c2c1 [Example 4, N^1-[1-(1-naphthylsulfonyl-1-H-indazol-6-yl]beta-alaninamide Hydrochloride]	0.5 nM
CCN(CC)CCC(=O)Nc1ccc2cnn(S(=O)(=O)c3cccc4ccccc34)c2c1 [Example 11]	2.1 nM
CN(C)CCC(=O)Nc1ccc2cnn(S(=O)(=O)c3cccc4ccccc34)c2c1 [Example 10]	1.8 nM
O=C(CCN1CCCCC1)Nc1ccc2cnn(S(=O)(=O)c3cccc4ccccc34)c2c1 [Example 12]	15 nM
NCCC(=O)Nc1cccc2c1cnn2S(=O)(=O)c1cccc2ccccc12 [Example 5]	7.9 nM
O=C(Nc1ccc2cnn(S(=O)(=O)c3cccc4ccccc34)c2c1)C1CCNCC1 [Example 8]	2.3 nM
